Data: ChEMBL document CHEMBL1158674, “Jimenezin, a Novel Annonaceous Acetogenin from the Seeds of Rollinia mucosa Containing Adjacent TetrahydrofuranTetrahydropyran Ring Systems ,1” (J Nat Prod, 1998)
Values after ≈ are worked out from the molar mass of the structure shown.

How the values were obtained:
A549 = experiment: Cytotoxicity against human A549 cells after 7 days by MTT assay; format: functional; settings: A549, 168 h, read-out: ED50 (the source's name)
MCF7 = experiment: Cytotoxicity against human MCF7 cells after 7 days by MTT assay; format: functional; settings: MCF7, 168 h, read-out: ED50 (the source's name)
HT-29 = experiment: Cytotoxicity against human HT-29 cells after 7 days by MTT assay; format: functional; settings: HT-29, 168 h, read-out: ED50 (the source's name)
A498 = experiment: Cytotoxicity against human A498 cells after 7 days by MTT assay; format: functional; settings: A498, 168 h, read-out: ED50 (the source's name)
PC-3 = experiment: Cytotoxicity against human PC3 cells after 7 days by MTT assay; format: functional
MIA PaCa-2 = experiment: Cytotoxicity against human MIAPaCa2 cells after 7 days by MTT assay; format: functional
Artemia = experiment: Toxicity in brine shrimp; format: organism-based; settings: in vivo

SMILES | EC50 (A549) [µg/mL] | EC50 (MCF7) [µg/mL] | EC50 (HT-29) [µg/mL] | EC50 (A498) [µg/mL] | EC50 (PC-3; Homo sapiens, PC-3, 168 h, read-out: ED50 (the source's name)) [µg/mL] | EC50 (MIA PaCa-2; Homo sapiens, MIA PaCa-2, 168 h, read-out: ED50 (the source's name)) [µg/mL] | Activity (Artemia) [×10⁻³ ug/ml] | ED50 (PC-3) [×10⁻⁴ ug/ml] | ED50 (MIA PaCa-2) [×10⁻⁴ ug/ml]
COc1cccc2c1C(=O)c1c(O)c3c(c(O)c1C2=O)C[C@@](O)(C(=O)CO)C[C@@H]3O[C@H]1C[C@H](N)[C@H](O)[C@H](C)O1 [DOXORUBICIN] | 0.00447 (≈ 0.00822 µM) | 0.0897 (≈ 0.165 µM) | 0.0162 (≈ 0.0298 µM) | 0.0011 (≈ 0.00202 µM) | 0.0213 (≈ 0.0392 µM) | 0.00288 (≈ 0.0053 µM) | – | – | –
CCCCCCCCCC[C@@H]1O[C@H]([C@@H]2CC[C@H]([C@H](O)CCCCCCCCCC[C@@H](O)CC3=C[C@H](C)OC3=O)O2)CC[C@H]1O [JIMENEZIN] | 0.0164 (≈ 0.0263 µM) | > 0.1 | 0.00425 (≈ 0.00682 µM) | 0.0494 (≈ 0.0793 µM) | – | – | 5.7 | 2.77 | 1.69
